Assay [1] relates to PGBM patient tumor tissue (pediatric GBM). The experiment in a line: Drug screening of uncultured patient tumor tissue PGBM on OBSCs. The assay is classed as cell-based, human. The conditions noted are these: for pEC50 / EC90: Homo sapiens, PGBM on OBSCs; for pEC50: dose required to kill 50% of the tumor; for EC90: dose required to kill 90% of the tumor; for DSS (drug sensitivity score): PGBM patient tissue, scale -100 to +100. The method, then:
(§1) Tumor cells were seeded onto OBSCs 2h after slicing as described above. One day after tumor seeding, six concentrations of each drug were diluted in the media underneath each culture insert, or XRad was applied using an X-Rad 320 Precision X-ray machine (n = 4 tumor foci per concentration; n ≥ 24 tumor foci per drug per cell line). Three days after treatment, the bioluminescence of live tumor cells was measured using an AMI optical imager (Spectral Instruments) and dose-response curves were generated. Tumor survival was normalized to day one tumor fluorescence and compared to an untreated control group.
To engraft onto OBSCs, the cryopreserved/thawed or fresh brain tumor tissue was filtered through a 100 μm cell strainer. Each 50 mg of tissue was transfected with 1mL mcherry-FLuc Lentivirus at 1.5e7 vg/ml with 1μL polybrene for 4h at 37°C. After incubation, the brain tumor tissue was washed with PBS three times to remove the residual virus and reconstituted in PBS with a final volume of 150 μL. Then the tissue solution was engrafted atop OBSCs at ∼0.5 mg tissue in 3 μL of PBS on each hemisphere of the slice. The OBSC engrafted with patient tumor tissue was incubated at 37°C with 5% CO2 and 95% humidity. The BSM was changed after 24h and subsequently every 3 days. Tumor treatment studies were executed as described above for tumor lines. The viability of the patient tissue was measured by an AMI optical imaging system with the addition of 1.5 mg/mL luciferin underneath the culture insert.
(§2) Several weighted parameters were factored into an overall drug sensitivity score.
(§3) For DSS parameters 1–6, therapeutic windows were calculated by comparing OBSC toxicity and tumor response at the doses where tumor kill passed through the DSS parameter (Table S1 and S3). For DSS parameter 7, the therapeutic window was calculated by comparing the slopes through the tumor EC50 and the OBSC tox EC50. For DSS parameter 8, the therapeutic window was calculated by comparing the areas under tumor kill and OBSC tox curves. Normalized therapeutic window ratios for DSS parameters 1–8 within each drug-tumor-OBSC interaction were calculated in the following manner: within each window, values ranged from +1 to −1, where values approaching +1 signify increasing tumor kill relative to normal tissue toxicity, and values approaching −1 indicate agents where tumors remained highly viable while toxicity to the normal OBSC tissue was elevated. DSS parameters 9–11 were determined based on the behavior of the tumor in response to the drug, as defined above.
(§4) All individually weighed parameters were added together to generate the DSS. Overall DSS from 0 to 100 signify increasing efficacy in tumor kill relative to OBSC toxicity, while scores from 0 to −100 describe scenarios in which tumors thrive more effectively than OBSCs for a given treatment. Dose-response values were calculated via linear interpolation of raw data, not from best-fit curve equations.

Assay [2] deals with MG-I patient tumor tissue (WHO I meningioma). Briefly: Drug screening of uncultured patient tumor tissue MG-I on OBSCs. The assay is classed as cell-based. The conditions noted are these: Homo sapiens, dose required to kill 90% of the tumor. How it is done:
as §1
(§5) To engraft onto OBSCs, the cryopreserved/thawed or fresh brain tumor tissue was filtered through a 100 μm cell strainer. […] The viability of the patient tissue was measured by an AMI optical imaging system with the addition of 1.5 mg/mL luciferin underneath the culture insert. […]
(§6) For DSS parameters 1–6, therapeutic windows were calculated by comparing OBSC toxicity and tumor response at the doses where tumor kill passed through the DSS parameter (Table S1 and S3). For DSS parameter 7, the therapeutic window was calculated by comparing the slopes through the tumor EC50 and the OBSC tox EC50. For DSS parameter 8, the therapeutic window was calculated by comparing the areas under tumor kill and OBSC tox curves. […]

Assay [3] relates to SE-I patient tumor tissue (WHO I subependymoma). The experiment in a line: Drug screening of uncultured patient tumor tissue SE-I on OBSCs. The assay is classed as cell-based. The conditions noted are these: Homo sapiens; for EC90: dose required to kill 90% of the tumor. The method, then: as §1
(§7) To engraft onto OBSCs, the cryopreserved/thawed or fresh brain tumor tissue was filtered through a 100 μm cell strainer. Each 50 mg of tissue was transfected with 1mL mcherry-FLuc Lentivirus at 1.5e7 vg/ml with 1μL polybrene for 4h at 37°C. After incubation, the brain tumor tissue was washed with PBS three times to remove the residual virus and reconstituted in PBS with a final volume of 150 μL. […] The viability of the patient tissue was measured by an AMI optical imaging system with the addition of 1.5 mg/mL luciferin underneath the culture insert. […]
as §3, with “DSS parameters 9–11 were determined based on the behavior of the tumor in response to the drug, as defined above.” left out

The test system of assay [4] is 7 cell lines (MB231Br, LN229, U373WT, U373KO, GBM8, MS21, PDIPG). Briefly: Drug screening on OBSCs, summary over the panel of seven tumor lines. Type of assay: cell-based, human. The conditions noted are these: for response / killing over the 7 cell lines: number of lines responding. The method, then:
Tumor cells (0.17 μL, 25,000 cells) were seeded onto OBSCs 2h after slicing, with one tumor seeded in the center of each hemisphere for a total of two tumor foci per OBSC. BSM was changed 24h after slicing. Fluorescence images were taken 0 h, 24 h, and 96 h post-seeding for normalization of tumor size. Bioluminescence readouts were also taken at 0 h, 24 h, and 96 h post seeding for assessment of cell viability. Luciferin was added underneath the culture insert and allowed to incubate for 10 min before bioluminescence measurement on an AMI optical imaging system.
as §1, §2, §3, §4

The test system of assay [5] is LBM patient tumor tissue (Stage III NSCLC adenocarcinoma). The experiment in a line: Drug screening of uncultured patient tumor tissue LBM on OBSCs. Type of assay: cell-based. The conditions noted are these: Homo sapiens; for EC90: dose required to kill 90% of the tumor. How it is done:
as §1, §7
as §3, with “DSS parameters 9–11 were determined based on the behavior of the tumor in response to the drug, as defined above.” left out

The test system of assay [6] is GBM-MG patient tumor tissue (GBM w/ WHO I meningioma). The experiment in a line: Drug screening of uncultured patient tumor tissue GBM-MG on OBSCs. The assay is classed as cell-based. The conditions noted are these: Homo sapiens, dose required to kill 90% of the tumor. How it is done:
as §1, §5, §6

The test system of assay [7] is ODDG patient tumor tissue (WHO grade III oligodendroglioma). The experiment in a line: Drug screening of uncultured patient tumor tissue ODDG on OBSCs. Type of assay: cell-based. The conditions noted are these: Homo sapiens. How it is done: as §1, §5, §6
The mark [8] stands for this setting: dose required to kill 50% of the tumor.

pEC50, pIC50: −log10 of the molar value.

`Nc1ncn([C@@H]2O[C@H](CO)[C@@H](O)[C@H]2O)c(=O)n1` [Azacitidine]: the pEC50 (usually −log10 of the EC50, conventionally taken in molar units) in assay [1] is less than 4.00. Besides, the EC90 in assay [1], in assay [2] and in assay [3] was greater than 10 µM in each case. The pIC50 – broadly, the IC50 on a negative log10 scale, so that one unit is a factor of ten – in assay [4] (Homo sapiens, read-out: IC50 values, range over the cell lines) was 3.40 to 3.70. Also, in assay [4], the “response / killing over the 7 cell lines” value is 7 of 7.
On to `N.N.O=C([O-])C1(C(=O)[O-])CCC1.[Pt+2]` [Carboplatin], for which, in assay [4], the “response / killing over the 7 cell lines” value is “robust response”.
Same read-out and setting: the value for `COc1cc([C@@H]2c3cc4c(cc3[C@@H](O[C@@H]3O[C@@H]5CO[C@@H](C)O[C@H]5[C@H](O)[C@H]3O)[C@H]3COC(=O)[C@H]23)OCO4)cc(OC)c1O` [Etoposide] was 6 of 7.
`O=NN(CCCl)C(=O)NC1CCCCC1` [Lomustine]: the EC90 (as a rule, the concentration needed for an effect of 90%) in assay [5] was greater than 10 µM. Moreover, the “response / killing over the 7 cell lines” value in assay [4] was “robust response”.
As to `Cn1nnc2c(C(N)=O)ncn2c1=O` [Temozolomide], the pEC50 in assay [1], in assay [7] (setting [8]), in assay [3] (setting [8]) and in assay [5] (setting [8]) was less than 4.00 in each case. Also, the EC90 in assay [1], in assay [6], in assay [2], in assay [7] (dose required to kill 90% of the tumor), in assay [3] and in assay [5] was greater than 10 µM throughout. In addition, the “DSS (drug sensitivity score)” value in assay [1] is given as 26. The “DSS scores, range among tumors” value in assay [4] is −62 to 96.
`CC(=O)Nc1cccc(-n2c(=O)n(C3CC3)c(=O)c3c(Nc4ccc(I)cc4F)n(C)c(=O)c(C)c32)c1` [Trametinib]: in assay [1], the pEC50 is less than 4.00, the EC90 is greater than 10 µM and the “DSS (drug sensitivity score)” value stood at 16. In addition, in assay [1] (PGBM patient tissue on OBSCs, 72 h), the “Killing at highest dose” value is given as “about one-third”.
